Data from PMC10845951, “Characterization of a selective, iron-chelating antifungal compound that disrupts fungal metabolism and synergizes with fluconazole” (Microbiology Spectrum, 2024).

How the values were obtained:
C. glabrata cells [1] = assay: ROS assay (H2DCF-DA fluorescence); format: cell-based, Candida glabrata; settings: 30 µM
C. glabrata cells [2] = assay: Dead cell staining with propidium iodide; format: cell-based, Candida glabrata; settings: 24 h
Procedure: Propidium iodide (Sigma) was freshly prepared to a final concentration of 5 µg/mL in PBS.
The samples were incubated at 30°C and harvested to a total number of cells equivalent to a 5-mL culture with an OD600 of 0.3 at 6 and 24 h. As a positive control for cell death, cells treated with DMSO were incubated at 75°C for 1 h. The cells were centrifuged at 7,000 rpm for 5 minutes to remove the supernatant, followed by resuspension of the cell pellets in 100-µL 5 µg/mL propidium iodide for 10 minutes in the dark at room temperature. The supernatant was removed by centrifugation at 7,000 rpm for 5 minutes, followed by washing with 500-µL PBS and a final centrifugation at 7,000 rpm for 5 minutes. Finally, the cells were resuspended in 150-µL PBS and measured for fluorescence intensity using a microplate reader.
The autofluorescence of the unstained treated samples was subtracted from raw fluorescence intensities of the stained samples and then normalized to DMSO. Normalized values were log transformed and then analyzed using one-way ANOVA and Tukey’s HSD post hoc test.

c1ccc(-c2cccc(-c3ccccn3)n2)nc1 [2,2′:6′,2′′-terpyridine]
ROS formation (C. glabrata cells [1]; 3 or 6 h): no ROS formation could be detected
ROS formation (C. glabrata cells [1]; 24 h): significant ROS production
number of propidium iodide-positive cells (C. glabrata cells [2]; 10 µM, vs DMSO): apparent reduction in the number of propidium iodide-positive cells
mode of antifungal effect (C. glabrata cells [2]): cytostatic effect
propidium iodide fluorescence (cell death) (C. glabrata cells [2]; increasing concentrations): no significant difference in fluorescence intensity compared to DMSO
